Data published in patent publication US20240148736A1, “COMBINATION DRUG FOR TREATING RENAL CANCER AND POTENTIATOR FOR THERAPEUTIC EFFECTS OF TYROSINE KINASE INHIBITOR” (Saitama Medical University, priority 2020, published 2024).

Columns and labels:
[1] = test system: IL6 mRNA; experiment: IL6 mRNA level in 3D culture of ACHN-R cells (qRT-PCR); assay type: cell-based, human; conditions: SITA treatment versus vehicle, ACHN-R cells 3D culture
Protocol: (§1) Extraction of RNA, synthesis of cDNA, and quantitative reverse-transcription polymerase chain reaction (qRT-PCR) were carried out according to the methods disclosed in “[…], et al. ALDH1A1 in patient-derived bladder cancer spheroids activates retinoic acid signaling leading to TUBB3 overexpression and tumor progression. Int. J. Cancer 146, 1099-1113 (2019).” FIGS. 4k to 4l depict the results studying how SITA treatment affects the IL6 mRNA level in the 3D cultures of the ACHN-R cells (FIGS. 4k) and 769-P-R cells (FIG. 4l), which are both SUN resistant cells. […] In FIGS. 4k to 4l, moreover, “*” represents P<0.05.

[2] = test system: 769-P cells; experiment: 3D spheroid proliferation / cell survival rate assay; assay type: cell-based, human; conditions: SITA alone, dose-response
Protocol: (§2) ACHN and 769-P, which were human RCC cell lines, were acquired from the American Type Culture Collection (ATCC), and those authenticated by short tandem repeat (STR) analysis performed by BEX CO., LTD. were used. The ACHN and 769-P cells were cultured on a DEME medium and a PRMI medium (NACALI TESQUE, INC.), respectively, to both of which 10% of FBS, 100 U/mL of penicillin, and 100 μg/mL of streptomycin were added, using an incubator set at 37° C. and 5% CO2. The ACHN and 769-P cells were exposed to sunitinib (SUN) at 10 μM max., for 6 months or longer, to produce SUN resistant RCC cell lines, ACHN-R and 769-P-R, respectively.
(§3) A cell survival rate of the cells 3 days after the drug treatment and siRNA transfection was evaluated by CellTiter-Glo 3D Assay (Promega K.K.).
(§4) FIG. 4a depicts the results of ACHN-R and the parent cell line thereof. FIG. 4b depicts the results of 769-P-R and the parent cell line thereof. […] In FIGS. 4a to 4b, moreover, “ns” represents “no significant difference.”
(§5) FIGS. 4m to 4n are diagrams depicting the results studying how the DPP4 overexpression affects the cell survival rate of the RCC spheroids treated with SUN. ACHN cells (FIG. 4m) and 769-P cells (FIG. 4n), each stably expressing a control vector (vector #1 or #2) or DPP4 (DPP4 #1 or #2) were treated with SUN, and were analyzed by an ATP-based luciferase assay. […]

[3] = test system: ACHN cells; experiment: as above; assay type: cell-based, human; conditions: SITA alone, dose-response
Protocol: as §2, §3, §4, §5

[4] = test system: RCC-B spheroids; experiment: Cell survival rate assay on spheroid culture (CellTiter-Glo 3D); assay type: cell-based, human; conditions: SITA (100 μM) in combination with SUN, third day
Excerpt: (§6) After attaining the informed consent from the patients at Saitama Medical Center, Saitama Medical University, patient-derived cells (PDC) were produced from the tumors excised from the RCC patients. The tumor samples were processed with reference to the literature (Namekawa, T, et al. ALDH1A1 in patient-derived bladder cancer spheroids activates retinoic acid signaling leading to TUBB3 overexpression and tumor progression. Int. J. Cancer 146, 1099-1113 (2019)). The protocol of the research was approved by the Ethics Committee of Saitama Medical Center, Saitama Medical University (No. 1363-IV).
as §3
(§7) FIGS. 2b to 2c depict the results of treating the RCC-A spheroids and the RCC-B spheroids with SITA (100 μM) and SUN. The data was presented as the mean value ±SD of the relative luciferase activity as analyzed by an ATP-based luciferase assay. […] In FIGS. 2b to 2c, moreover, “*” represents P<0.05.
(§8) The production of the spheroid ATP in the RCC-A cells or RCC-B cells treated with SUN alone or a combination of SUN and SITA on the third day was measured with the luciferase activity using the CEllTiter-Glo. […]

[5] = test system: RCC-A spheroids; experiment: as above; assay type: cell-based, human; conditions: SITA (100 μM) in combination with SUN, third day
Excerpt: as §6, §3, §7, §8

[6] = test system: ACHN-R xenograft tumor; experiment: Xenograft tumor model in nude mice; assay type: in vivo
Protocol: Male nude mice (BALB/c-nu/nu, 6 weeks old) were acquired from CLAIR Japan, Inc. The ACHN cells and the ACHN−R cells were each subjected to trypsinization, followed by washing with PBS. Then, 5×10^6 cells of the ACHN cells or the ACHN−R cells were dispersed in 150 μL of Matrigel (BD Biosciences), and were subcutaneously inoculated in each mouse. The size of the tumor was measured every day. The tumor volume (V) was determined by measuring the length (L) and the width (W), and inserting the measured values in the following equation.
When the volume of the engrafted tumor reached 180 mm^3, SUN (20 mg/kg) was orally administered to the mice inoculated with the ACHN cells, and SUN (20 mg/kg) alone or two drugs, SUN (20 mg/kg) and DPP4 inhibitor sitagliptin (SITA) (30 mg/kg), were orally administered to the randomly selected mice inoculated with the ACHN-R cells. […] The drug was administered in a cycle consisting of 2 consecutive days of administration, followed by 1 day of washout.
At the point when the volume of the ACHN or ACHN−R xenograft nude mouse tumor reached 180 mm^3, oral administration of SUN alone, or a combination of SUN and SITA was started.
The data was presented as the mean SD, and n=6. […] The tumor volume was estimated by measuring the size of the tumor with Vernier calipers. […] In FIGS. 6a and 6b, moreover, “k” represents P<0.05.
Ki67 immunohistochemical staining of the excised tumor of each group was carried out to determine a ratio of Ki67 positive cells (Ki67 index). […] The scale bar is 50 μm. […] In FIG. 6g, moreover, “*” represents P<0.05.
The expression level was evaluated by qRT-PCR. […] In FIGS. 6h to 6l, moreover, “*” represents P<0.05.

[7] = test system: 769-P-R cells; experiment: 3D spheroid proliferation / cell survival rate assay; assay type: cell-based, human
Protocol: as §2, §3, §4
(§9) FIGS. 4c to 4f are diagrams depicting the results of studying the effect of the combination of SITA and SUN in the 3D culture of the ACHN cells (FIG. 4c), ACHN-R cells (FIG. 4d), 769-P cells (FIG. 4e), or 769-P-R cells (FIG. 4f). The concentration of SITA used was 100 μM. […] In FIGS. 4c, 4d, and 4f, moreover, […] represents P<0.05.
(§10) FIGS. 4g to 4j are diagrams depicting the results studying how the DPP4 knockdown by siRNA affects the therapeutic effects of SUN in the 3D culture of the ACHN cells (FIG. 4g), ACHN−R cells (FIG. 4h), 769-P cells (FIG. 4i), or 769-P-R cells (FIG. 4j). The data was represented as the means value±SD of the relative luciferase activity of each group of the spheroids, and n=3. […] In FIGS. 4h to 4j, moreover, “*” represents P<0.05.

[8] = test system: ACHN-R cells; experiment: as above; assay type: cell-based, human
Protocol: as §2, §3, §4, §9, §10

[9] = test system: IL6 mRNA; experiment: IL6 mRNA level in 3D culture of 769-P-R cells (qRT-PCR); assay type: cell-based, human; conditions: SITA treatment versus vehicle, 769-P-R cells 3D culture
Protocol: as §1

[10] = combination of SUN and SITA (100 μM)

Structure (SMILES): N[C@@H](CC(=O)N1CCn2c(nnc2C(F)(F)F)C1)Cc1cc(F)c(F)cc1F [SITA, sitagliptin]
- IL6 mRNA level [1]: reduced the expression of mRNA of IL6
- spheroid proliferation [2]: did not affect the spheroid proliferation
- spheroid proliferation [3]: did not affect the spheroid proliferation
- proliferation inhibition effect owing to SUN (cell survival rate, relative luciferase activity) [4]: proliferation inhibition effect owing to SUN was enhanced
- proliferation inhibition effect owing to SUN (cell survival rate, relative luciferase activity) [5]: proliferation inhibition effect owing to SUN was enhanced
- Ki67 index (ratio of Ki67 positive cells) ([6]; SITA and SUN in combination, ACHN-R xenograft tumor): reduced the Ki67 index
- sunitinib resistance of the RCC xenograft tumor ([6]; SITA in combination with SUN): contributed to overturn the sunitinib resistance
- expression of IL6 (mRNA level) in tumor ([6]; SITA in combination with SUN, ACHN-R xenograft tumor): expression of IL6 decreased
- proliferation of the tumor (tumor volume, tumor weight) ([6]; SUN (20 mg/kg) and SITA (30 mg/kg) orally in combination, ACHN-R xenograft, 13th day): proliferation of the tumor was suppressed to the similar degree to the ACHN xenograft tumor
- spheroid proliferation ([7]; SITA alone, dose-response): did not affect the spheroid proliferation
- spheroid proliferation [7, 10]: suppressed the spheroid proliferation
- spheroid proliferation ([8]; SITA alone, dose-response): did not affect the spheroid proliferation
- spheroid proliferation [8, 10]: suppressed the spheroid proliferation
- IL6 mRNA level [9]: reduced the expression of mRNA of IL6
